In patent US11505575B2, “Cyclic polypeptides for PCSK9 inhibition” (Merck Sharp & Dohme LLC, priority 2018, dated 2022) one finds IC50 data, which are given here for 15 compounds.

Broadly, the IC50 is the concentration at which inhibition is half-maximal.

*1 amine or outer side, *2 acyl side, *3 side chain or, on linkers, in order; H or OH if unused. Where a SMILES comes first, the peptide text is derived from it. Bridges are numbered along the chain shown (N, C = ends). [ ]: non-standard residue; d: D form. Ala(benzothiazol-2-yl) = N[C@@H](Cc1nc2ccccc2s1)C(=O)O; Phe(4-guanidino) = N=C(N)Nc1ccc(C[C@H](N)C(=O)O)cc1; X4 = O=C([C@H](Cc1cc2cc(F)ccc2[nH]1)N[*:1])[*:2]; Trp(5-F) = N[C@@H](Cc1c[nH]c2ccc(F)cc12)C(=O)O; Trp(7-aza) = N[C@@H](Cc1c[nH]c2ncccc12)C(=O)O; hAad = O=C([C@H](CCCCC(=O)[*:3])N[*:1])[*:2]; X7 = O=C([C@H](Cc1cc[nH]c1)N[*:1])[*:2]; mXylylene = c1cc(C[*:1])cc(C[*:2])c1; d(aThr) = C[C@@H](O)[C@@H](N)C(=O)O; Cha = N[C@@H](CC1CCCCC1)C(=O)O; Agp = N=C(N)NC[C@H](N)C(=O)O; Chg = N[C@H](C(=O)O)C1CCCCC1; Tle = CC(C)(C)[C@H](N)C(=O)O; αMeV = CC(C)[C@](C)(N)C(=O)O; hLys = NCCCCC[C@H](N)C(=O)O; αMeP = C[C@@]1(C(=O)O)CCCN1; hSer = N[C@@H](CCO)C(=O)O; Dab = NCC[C@H](N)C(=O)O; Nva = CCC[C@H](N)C(=O)O; Aib = CC(C)(N)C(=O)O; Ahx = NCCCCCC(=O)O; GABA = NCCCC(=O)O; Mpa = O=C(O)CCS

This assay has as its target human PCSK9 / human LDLR EGFa domain interaction (Homo sapiens, UniProt Q8NBP7). Briefly: TR-FRET assay of inhibition of the PCSK9-LDLR protein-protein interaction. Type of assay: binding. The conditions noted are these: 20 nM biotinylated human PCSK9 + 20 nM his-tagged human LDLR EGFa domain, 2 hours room temperature. As for the experimental part:
A time-resolved fluorescence resonance energy (TR-FRET) assay was used to measure inhibition of the PCSK9-LDLR protein-protein interaction. Briefly, 20 nM avitag-biotinylated human PCSK9 was incubated with 20 nM his-tagged human LDLR EGFa domain in the presence of 5 nM LANCE Ulight Streptavidin (Perkin Elmer) and 5 nM europium-Anti-6×His (Perkin Elmer) for 2 hours covered at room temperature in buffer containing 50 mM HEPES, 150 mM NaCl, 5 mM CaCl2, 0.01% BSA and 0.01% Surfactant P20. Compounds were tested in dose-response and concentrations giving half-maximal inhibition calculated using a 4-parameter fit equation.
On the technique in general: In TR-FRET formats the signal depends on donor and acceptor labels being close together.

Sequence of human PCSK9 / human LDLR EGFa domain interaction (Q8NBP7 153-692): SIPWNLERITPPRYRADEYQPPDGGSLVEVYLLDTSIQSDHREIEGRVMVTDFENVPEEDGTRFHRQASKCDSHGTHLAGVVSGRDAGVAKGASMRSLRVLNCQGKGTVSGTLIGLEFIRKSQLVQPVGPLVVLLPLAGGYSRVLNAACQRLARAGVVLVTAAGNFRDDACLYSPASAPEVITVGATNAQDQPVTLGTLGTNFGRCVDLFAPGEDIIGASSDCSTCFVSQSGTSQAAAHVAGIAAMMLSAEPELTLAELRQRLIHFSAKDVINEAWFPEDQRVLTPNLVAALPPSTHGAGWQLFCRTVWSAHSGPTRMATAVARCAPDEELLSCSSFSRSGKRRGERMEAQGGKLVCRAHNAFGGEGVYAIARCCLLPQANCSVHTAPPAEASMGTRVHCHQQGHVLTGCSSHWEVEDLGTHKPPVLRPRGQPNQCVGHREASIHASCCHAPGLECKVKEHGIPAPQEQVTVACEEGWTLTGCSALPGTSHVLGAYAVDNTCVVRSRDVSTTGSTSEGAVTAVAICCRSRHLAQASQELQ
Sequence of human PCSK9 / human LDLR EGFa domain interaction (Q8NBP7 31-152 partner limits assumed): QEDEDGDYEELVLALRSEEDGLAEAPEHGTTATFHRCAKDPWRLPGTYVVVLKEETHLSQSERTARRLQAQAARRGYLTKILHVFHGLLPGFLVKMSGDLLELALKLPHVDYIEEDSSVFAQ

In the case of `CCC[C@@H]1NC(=O)[C@H](Cc2c[nH]c3ncccc23)NC(=O)[C@H]([C@@H](C)O)NC(=O)[C@H](CCCCCN)NC(=O)[C@H](Cc2ccc(O)cc2)NC(=O)[C@H](C(C)(C)C)NC(=O)CCSCc2cccc(c2)CSC[C@@H](C(N)=O)NC(=O)[C@H]([C@@H](C)O)NC(=O)[C@H](CCC)NC(=O)[C@H](Cc2ccc(O)cc2)NC(=O)[C@H](CCC(=O)O)NC1=O` [Compound 062] ([Mpa][Tle]Y[hLys]T[Trp(7-aza)][Nva]EY[Nva]TC-NH2; linker 1-12 via mXylylene), the IC50 was in the range of 100 to 1000 nM. As for `CC(C)[C@]1(C)NC(=O)[C@H](Cc2ccc(O)cc2)NC(=O)[C@H](CCC(=O)O)NC(=O)C(C)(C)NC(=O)[C@H](Cc2c[nH]c3ncccc23)NC(=O)[C@H]([C@@H](C)O)NC(=O)[C@H](CCCCN)NC(=O)[C@H](Cc2ccc(O)cc2)NC(=O)[C@H](C(C)(C)C)NC(=O)CCSCc2cccc(c2)CSC[C@@H](C(N)=O)NC(=O)[C@H]([C@@H](C)O)NC1=O` [Compound 063] ([Mpa][Tle]YKT[Trp(7-aza)][Aib]EY[αMeV]TC-NH2; linker 1-12 via mXylylene), the IC50 fell in the range of 100 to 1000 nM. As to `CCC[C@@H]1NC(=O)[C@H](Cc2c[nH]c3ncccc23)NC(=O)[C@H]([C@@H](C)O)NC(=O)[C@H](Cc2cnc[nH]2)NC(=O)[C@H](Cc2ccc(O)cc2)NC(=O)[C@H](C(C)(C)C)NC(=O)CCSCc2cccc(c2)CSC[C@@H](C(N)=O)NC(=O)[C@H]([C@@H](C)O)NC(=O)[C@H](CCO)NC(=O)[C@H](Cc2ccc(O)cc2)NC(=O)[C@H](CCC(=O)O)NC1=O` [Compound 072] ([Mpa][Tle]YHT[Trp(7-aza)][Nva]EY[hSer]TC-NH2; linker 1-12 via mXylylene), the IC50 lay in the range of 100 to 1000 nM.

Regarding `CCC[C@@H]1NC(=O)[C@H](Cc2ccc(O)cc2)NC(=O)[C@H](CCC(=O)O)NC(=O)[C@H](CCC)NC(=O)[C@H](Cc2c[nH]c3ncccc23)NC(=O)[C@H]([C@@H](C)O)NC(=O)[C@H](Cc2cnc[nH]2)NC(=O)[C@H](Cc2ccc(O)cc2)NC(=O)[C@H](C(C)(C)C)NC(=O)CCSCc2cccc(c2)CSC[C@@H](C(N)=O)NC(=O)[C@H](CCO)NC1=O` [Compound 074] ([Mpa][Tle]YHT[Trp(7-aza)][Nva]EY[Nva][hSer]C-NH2; linker 1-12 via mXylylene), the IC50 lay within 100 to 1000 nM. Regarding `CCC[C@@H]1NC(=O)[C@H](Cc2c[nH]c3ncccc23)NC(=O)[C@H]([C@@H](C)O)NC(=O)[C@H](Cc2c[nH]cn2)NC(=O)[C@H](Cc2ccc(O)cc2)NC(=O)[C@H](C(C)(C)C)NC(=O)CCSCc2cccc(c2)CSC[C@@H](C(N)=O)NC(=O)[C@H]([C@@H](C)O)NC(=O)[C@]2(C)CCCN2C(=O)[C@H](Cc2ccc(O)cc2)NC(=O)[C@H](CCC(=O)O)NC1=O` [Compound 075] ([Mpa][Tle]YHT[Trp(7-aza)][Nva]EY[αMeP]TC-NH2; linker 1-12 via mXylylene), the IC50 fell in the range of 100 to 1000 nM. Under `CCC[C@@H]1NC(=O)[C@H](Cc2c[nH]c3ncccc23)NC(=O)[C@H]([C@@H](C)O)NC(=O)[C@H](Cc2cc[nH]c2)NC(=O)[C@H](Cc2ccc(O)cc2)NC(=O)[C@H](C(C)(C)C)NC(=O)CCSCc2cccc(c2)CSC[C@@H](C(N)=O)NC(=O)[C@]2(C)CCCN2C(=O)[C@H](Cc2ccc(O)cc2)NC(=O)[C@H](CCC(=O)O)NC1=O` [Compound 076] ([Mpa][Tle]Y[X7]T[Trp(7-aza)][Nva]EY[αMeP]C-NH2; linker 1-11 via mXylylene) stands 100 to 1000 nM; under `CC(C)[C@]1(C)NC(=O)[C@H](Cc2ccc(O)cc2)NC(=O)[C@H](CCC(=O)O)NC(=O)C(C)(C)NC(=O)[C@H](Cc2c[nH]c3ncccc23)NC(=O)[C@H]([C@@H](C)O)NC(=O)[C@H](CCCCN)NC(=O)[C@H](Cc2ccc(O)cc2)NC(=O)[C@H](C(C)(C)C)NC(=O)CCSCc2cccc(c2)CSC[C@H](C(N)=O)NC(=O)[C@H]([C@@H](C)O)NC1=O` [Compound 077] ([Mpa][Tle]YKT[Trp(7-aza)][Aib]EY[αMeV]T[dC]-NH2; linker 1-12 via mXylylene), 100 to 1000 nM; under `CCC[C@@H]1NC(=O)[C@H](Cc2ccc(O)cc2)NC(=O)[C@H](CCC(=O)O)NC(=O)[C@H](CC(C)C)NC(=O)[C@H](Cc2c[nH]c3ncccc23)NC(=O)[C@H]([C@@H](C)O)NC(=O)[C@H](Cc2cnc[nH]2)NC(=O)[C@H](Cc2ccc(O)cc2)NC(=O)[C@H](C(C)(C)C)NC(=O)CCSCc2cccc(c2)CSC[C@@H](C(N)=O)NC(=O)[C@H]([C@@H](C)O)NC1=O` [Compound 078] ([Mpa][Tle]YHT[Trp(7-aza)]LEY[Nva]TC-NH2; linker 1-12 via mXylylene), 100 to 1000 nM.

On to `CCC[C@@H]1NC(=O)[C@H](Cc2ccc(O)cc2)NC(=O)[C@H](CCC(=O)O)NC(=O)[C@H](CC2CCCCC2)NC(=O)[C@H](Cc2c[nH]c3ncccc23)NC(=O)[C@H]([C@@H](C)O)NC(=O)[C@H](Cc2cnc[nH]2)NC(=O)[C@H](Cc2ccc(O)cc2)NC(=O)[C@H](C(C)(C)C)NC(=O)CCSCc2cccc(c2)CSC[C@@H](C(N)=O)NC(=O)[C@H]([C@@H](C)O)NC1=O` [Compound 079] ([Mpa][Tle]YHT[Trp(7-aza)][Cha]EY[Nva]TC-NH2; linker 1-12 via mXylylene), for which the IC50 was in the range of 1000 to 12100 nM. Under `CCC[C@@H]1NC(=O)[C@H](Cc2nc3ccccc3s2)NC(=O)[C@H]([C@@H](C)O)NC(=O)[C@H](Cc2cnc[nH]2)NC(=O)[C@H](Cc2ccc(O)cc2)NC(=O)[C@H](C(C)(C)C)NC(=O)CCSCc2cccc(c2)CSC[C@@H](C(N)=O)NC(=O)[C@H]([C@@H](C)O)NC(=O)[C@H](CCC)NC(=O)[C@H](Cc2ccc(O)cc2)NC(=O)[C@H](CCC(=O)O)NC1=O` [Compound 084] ([Mpa][Tle]YHT[Ala(benzothiazol-2-yl)][Nva]EY[Nva]TC-NH2; linker 1-12 via mXylylene) stands 100 to 1000 nM. Turning to `CCC[C@@H]1NC(=O)[C@H](Cc2c[nH]c3ncccc23)NC(=O)[C@H]([C@@H](C)O)NC(=O)[C@H](CNC(=N)N)NC(=O)[C@H](Cc2cc3cc(F)ccc3[nH]2)NC(=O)[C@H](Cc2cc3cc(F)ccc3[nH]2)NC(=O)[C@@H](NC(=O)[C@H](Cc2ccc(NC(=N)N)cc2)NC(C)=O)CSCc2cccc(c2)CSC[C@@H](C(N)=O)NC(=O)[C@H]([C@@H](C)O)NC(=O)[C@H](CCC)NC(=O)[C@H](Cc2ccc(O)cc2)NC(=O)[C@H](CCC(=O)O)NC1=O` [Compound 092] (Ac-[Phe(4-guanidino)]C[X4][X4][Agp]T[Trp(7-aza)][Nva]EY[Nva]TC-NH2; linker 2-13 via mXylylene), the IC50 is 100 to 1000 nM. On to `CCC[C@@H]1NC(=O)[C@H](Cc2c[nH]c3ncccc23)NC(=O)[C@H]([C@@H](C)O)NC(=O)[C@H](CNC(=N)N)NC(=O)[C@H](Cc2c[nH]c3ccc(F)cc23)NC(=O)[C@H](C(C)(C)C)NC(=O)[C@@H](NC(=O)[C@H](Cc2ccc(NC(=N)N)cc2)NC(C)=O)CSCc2cccc(c2)CSC[C@@H](C(N)=O)NC(=O)[C@H]([C@@H](C)O)NC(=O)[C@H](CCC)NC(=O)[C@H](Cc2ccc(O)cc2)NC(=O)[C@H](CCC(=O)O)NC1=O` [Compound 093] (Ac-[Phe(4-guanidino)]C[Tle][Trp(5-F)][Agp]T[Trp(7-aza)][Nva]EY[Nva]TC-NH2; linker 2-13 via mXylylene), for which the IC50 lay in the range of 100 to 1000 nM.

Turning to `CCC[C@@H]1NC(=O)[C@H](Cc2c[nH]c3ncccc23)NC(=O)[C@@H]([C@@H](C)O)NC(=O)[C@@H]2CCCCC(=O)NCC[C@H](NC1=O)C(=O)N[C@@H](Cc1ccc(O)cc1)C(=O)N[C@@H](C1CCCCC1)C(=O)N[C@@H]([C@@H](C)O)C(=O)N[C@H](C(N)=O)CSCc1cccc(c1)CSCCC(=O)N[C@@H](C(C)(C)C)C(=O)N[C@@H](Cc1ccc(O)cc1)C(=O)N2` [Compound 108] ([Mpa][Tle]Y[hAad][d(aThr)][Trp(7-aza)][Nva][Dab]Y[Chg]TC-NH2; linker 1-12 via mXylylene; lactam 4-8), the IC50 fell in the range of 100 to 1000 nM. Turning to `CCC[C@@H]1NC(=O)[C@H](Cc2c[nH]c3ncccc23)NC(=O)[C@H]([C@@H](C)O)NC(=O)[C@@H]2CCCCNC(=O)CC[C@H](NC1=O)C(=O)N[C@@H](Cc1ccc(O)cc1)C(=O)NC(C)(C)C(=O)N[C@@H]([C@@H](C)O)C(=O)N[C@H](C(N)=O)CSCc1cccc(c1)CSCCC(=O)N[C@@H](C(C)(C)C)C(=O)N[C@@H](Cc1ccc(O)cc1)C(=O)N2` [Compound 114] ([Mpa][Tle]YKT[Trp(7-aza)][Nva]EY[Aib]TC-NH2; linker 1-12 via mXylylene; lactam 4-8), the IC50 lay within 100 to 1000 nM. For `CCC[C@@H]1NC(=O)[C@H](Cc2c[nH]c3ncccc23)NC(=O)[C@H]([C@@H](C)O)NC(=O)[C@@H]2CCCCNC(=O)CC[C@@H](NC1=O)C(=O)N[C@@H](Cc1ccc(O)cc1)C(=O)N[C@@H](C1CCCCC1)C(=O)N[C@@H]([C@@H](C)O)C(=O)NCCCC(=O)NCCCCCC(=O)N[C@@H](C(C)(C)C)C(=O)N[C@@H](Cc1ccc(O)cc1)C(=O)N2` [Compound 117] (cyclo([Ahx][Tle]YKT[Trp(7-aza)][Nva][dE]Y[Chg]T[GABA]); lactam 4-8), the IC50 lay in the range of 100 to 1000 nM.
